# Tests used:
# RBL-2H3-cells = test: DNP-BSA antigen-induced activation of sensitised RBL-2H3 cells; assay type: cell-based; conditions: Rattus norvegicus, read-out: inhibition of the antigen-induced cell activation
# Experimental: Individual RBL-2H3-cells (a tumour cell line related to the mast cells) adhering to glass slides are used.
# The cultivation and attachment of the RBL-2H3-cells are carried out by the method described by HIDE and BEAVEN (1991). In order to sensitise the adhesive RBL-2H3-cells the cells are incubated for 2 hours at ambient temperature with a 1:2000 diluted commercial gammaglobulin E-solution against a dinitrophenol-bovine serum albumin complex (DNP-BSA-antigen). The cells are then washed. By the addition of 0.1 ml of DNP-BSA-solution (10 μg/ml) there is a massive immunological cell activation which is mediated by a cytoplasmic Ca^2+ -overload. The fluorometric calcium measurement in the cytoplasm of individual adhering RBL-2H3-cells is carried out analogously to the method described by KUDO and OGURA (1986) for neuronal cells, which is also explained hereinbefore in this specification.
# [1] = test system: unselective cation channels (UCC); test: Thapsigargin (0.1 μM) stimulated Ca^2+ entry through unselective cation channels in fura-2-charged RBL-hm 1 cells; assay type: cell-based, rat; conditions: for percent inhibition of Ca2+ entry / % Inhib. / %: 10 μM test substance; for % Inhibition: RBL-hm 1 cells, Thapsigargin (0.1 μM) stimulation, 10 μM test substance (Table 21); for %: Table 16, %inhibition
# From the text: As a measurement of the cell activation or as a measurement of the inhibition thereof by UCC blockers, the kinetics of the cytoplasmic calcium ion concentration in fura-2-charged cells is quantified fluorometrically using the method described by GRYNKIEWICZ et al. (1985).
# Consequently the Ca^2+ -stores are rapidly depleted. As described by J. PUTNEY (Calcium, 11, 611-624, 1990) the depletion of these stores constitutes the physiological stimulation for opening up unselective cation channels in the cell membrane. The result of this is a massive influx of Na^+ and Ca^2+ into the cell. Because of these properties, Thapsigargin is suitable as an indirect stimulator for agonist- and IP3-independent opening up of the unselective cation channels.
# The functional endothelin antagonism of the substances according to the invention is mediated through a blockade of the unselective cation channels. Consequently, detection of a functional Thapsigargin-antagonism on RBL-hm1 cells is also a suitable screening method for functional endothelin antagonists.
# For screening purposes, fura-2-charged adhesive RBL-hm 1 cells are stimulated with 0.1 μM Thapsigargin in a Ca^2+ -free incubation medium. After 4 minutes, extracellular Ca^2+ is restored to a concentration of 1.5 mM and, using the fura-2-fluorescence, the excessive increase in the cytoplasmic Ca^2+ -concentration caused by a massive transmembranal Ca^2+ -entry through unselective cation channels is recorded.
# This entry is to be inhibited solely by unselective cation channel blockers in a dosage-dependent manner. Neither conventional calcium antagonists nor specific blockers of agonists which stimulate the IP3 -turnover are able to inhibit the transmembranal Ca^2+ -entry triggered indirectly by Thapsigargin. The compounds of the present invention are distinguished by their inhibition of UCC.
# The fluorometric calcium measurement in the cytoplasm of individual adhering RBL-hm1 cells is carried out analogously to the method described by KUDO and OGURA (1986) for neuronal cells. An AXIOVERT 35 fluorescence microscope made by ZEISS is used in conjunction with an imaging system made by HAMAMATSU, consisting of the ICMS-image processing system, residual light camera with control unit and image intensifier DVS 3000.
# The kinetics of the cytoplasmic Ca^2+ -concentration is recorded continuously as a concentration/time curve after the cell activation stimulated by Thapsigargin (0.1 μM). The curves of two activated cell cultures are compared in the presence and absence of 10 μM test substance. The area under these curves (area under the curve=AUC) is integrated and recorded as a measurement of cell activation. The inhibitory potency of the UCC-blockers tested is determined using the following equation: [formula] %H=the percentage inhibition of the calcium entry through unselective cation channels which is stimulated and inhibited by 10 μM of test substance.
# AUCinh =area under the curve recorded in the presence of the stimulant plus 10 μM inhibitory test substance.
# AUCcontrol =area under the curve which is recorded only after the addition of the stimulant.
# The percentage inhibition of UCC after Thapsigargin stimulation (0.1 μM Thapsigargin) in RBL-hm 1 cells is given. The uniform concentration of the test substances is 10^-5 mol).
# [2] = test system: unselective cation channels (UCC); test: as above; assay type: cell-based, rat
# [3] = test system: Ca^2+-ATPase of intracellular IP3-sensitive Ca^2+-stores; conditions: in words; cited from earlier work
smiles,measurement,setting,value
O=C(O)c1cc(=O)c2c(OCC(O)COc3cccc4oc(C(=O)O)cc(=O)c34)cccc2o1 [chromoglycate],inhibition at 10 µM,RBL-2H3-cells,~50%
COc1cc2c(cc1OC)C(C(C(=O)NCCC(C)(C)C)c1ccccc1)=NCC2 (centres unmarked),percent inhibition of Ca2+ entry,[1]; Table 17,80.97%
same,IC50,[2]; Table 17,7.57 µM
C/C=C(/C)C(=O)O[C@H]1C(C)=C2[C@H]([C@@H]1OC(=O)CCCCCCC)[C@@](C)(OC(C)=O)C[C@H](OC(=O)CCC)[C@@]1(O)[C@H]2OC(=O)[C@@]1(C)O [THAPSIGARGIN],inhibition of Ca^2+-ATPase,[3],selectively and irreversibly inhibits
COc1cc2c(cc1O)CCN=C2C(C(=O)N(CCc1ccc(OC)c(OC)c1OC)CCc1ccc(OC)c(OC)c1OC)c1ccccc1 (centres unmarked),percent inhibition of Ca2+ entry,[1]; Table 20,86.70%
same,IC50,[2]; Table 20,3.47 µM
COc1cc2c(cc1OC)C(C(C(=O)NCC13CC4CC(CC(C4)C1)C3)c1ccccc1)=NCC2 (centres unmarked) [HNCH2-1-Adam.],percent inhibition of Ca2+ entry,[1]; Table 17,65.1%
COc1cc2c(cc1OC)C(C(C(=O)NCCc1cccc(C(F)(F)F)c1)c1ccccc1)=NCC2 (centres unmarked) [E],% Inhibition,[1],81.89%
COc1cc2c(cc1OC)C(C(C(=O)NCCc1ccc(Cl)c(OCc3ccccc3)c1)c1ccccc1)=NCC2 (centres unmarked),% Inhib.,[1]; Table 14,36.71%
"COc1cc2c(cc1OC)C(=C(C(=O)NCCc1c(OC)cccc1OC)c1ccccc1)NCC2 (single isomer, unassigned) [L]",% Inhibition,[1],53.14%
COc1cc2c(cc1C)C(C(C(=O)N(Cc1ccccc1)Cc1ccccc1)c1ccccc1)=NCC2 (centres unmarked),%,[1],58.3%
COc1ccc2c(c1)CCN=C2C(C(=O)NCCc1cccc(C(F)(F)F)c1)c1ccccc1 (centres unmarked),%,[1],30.41%
COc1cccc(C(C(=O)N(CCc2ccc(OC)c(OC)c2OC)CCc2ccc(OC)c(OC)c2OC)C2=NCCc3cc(OC)c(OC)cc32)c1 (centres unmarked),percent inhibition of Ca2+ entry,[1]; Table 18,24.3%
COc1cc2c(cc1OC)C(C(C(=O)NCCOc1cccc3ccccc13)c1ccccc1)=NCC2 (centres unmarked),percent inhibition of Ca2+ entry,[1]; Table 17,59%
COc1cc2c(cc1OC)C(C(C(=O)NC(C)(C)C)c1ccccc1)=NCC2 (centres unmarked),percent inhibition of Ca2+ entry,[1]; Table 17,81.60%
COc1cc2c(cc1OC)C(C(C(=O)NCC(C)(C)C)c1ccccc1)=NCC2 (centres unmarked),percent inhibition of Ca2+ entry,[1]; Table 17,81.51%
COc1cc2c(cc1OC)C(C(CC1CCC1)C(=O)N(CCc1ccc(OC)c(OC)c1OC)CCc1ccc(OC)c(OC)c1OC)=NCC2 (centres unmarked),percent inhibition of Ca2+ entry,[1]; Table 18,56.0%
COc1ccccc1CCNC(=O)C(C1=NCCc2cc(OC)c(OC)cc21)c1ccc(N=[N+]=[N-])cc1 (centres unmarked),percent inhibition of Ca2+ entry,[1]; Table 19,50.58%
COc1cc2c(cc1OC)C(C(C(=O)NCCc1ccc(C)cc1)c1ccccc1)=NCC2 (centres unmarked),% Inhib.,[1]; Table 14,79.60%
CCOc1ccccc1CCCNC(=O)C(C1=NCCc2cc(OC)c(OC)cc21)c1ccccc1 (centres unmarked) [compound 115],% Inhibition,[1],75.53%
COc1cc(N=[N+]=[N-])ccc1CCNC(=O)C(C1=NCCc2cc(OC)c(OC)cc21)c1ccccc1 (centres unmarked) [compound 133],% Inhibition,[1],68.15%
COc1cc2c(cc1OC)C(C(C(=O)N(CCc1ccc(OC)c(OC)c1OC)CCc1ccc(OC)c(OC)c1OC)c1ccccc1)=NCC2 (centres unmarked) [38a (oxalate)],% Inhibition,[1],52.64%
O=C(NCCc1cccc(C(F)(F)F)c1)C(C1=NCCc2ccsc21)c1ccccc1 (centres unmarked),% Inhib.,[1]; Table 13,43.49%
COc1cc2c(cc1OC)C(C(C(=O)NCCc1ccccc1C)c1ccccc1)=NCC2 (centres unmarked) [compound 102],% Inhibition,[1],80.77%
O=C(NCCc1ccc2c(c1)OCO2)C(=C1NCCc2cc3c(cc21)OCO3)c1ccccc1 [compound 46],% Inhibition,[1],68.06%
O=C(NCCc1cccc(C(F)(F)F)c1)C(C1=NCCc2cc(OCc3ccccc3)c(Cl)cc21)c1ccccc1 (centres unmarked) [drawing 274],percent inhibition of Ca2+ entry,[1]; Table 20,32.9%
COc1cc2c(cc1OC)C(=C(C(=O)NC(Cc1ccccc1)c1ccccc1)c1ccccc1)NCC2 (centres unmarked) [Q],% Inhibition,[1],64.28%
O=C(NCCc1ccsc1)C(=C1NCCc2ccsc21)c1ccccc1,% Inhib.,[1]; Table 13,67.75%
O=C(NCCc1ccsc1)C(C1=NCCc2ccsc21)c1ccccc1 (centres unmarked),% Inhib.,[1]; Table 13,0.0%
COc1ccc2c(c1)CCN(C(=O)C(C1=NCCc3cc(OC)c(OC)cc31)c1ccccc1)C2 (centres unmarked),percent inhibition of Ca2+ entry,[1]; Table 17,33.06%
COc1cc2c(cc1OCc1ccccc1)CCN=C2C(C(=O)NCCc1cccc(C(F)(F)F)c1)c1ccccc1 (centres unmarked),%,[1],31.8%
NS(=O)(=O)c1ccc(CCNC(=O)C(=C2NCCc3ccsc32)c2ccccc2)cc1,% Inhib.,[1]; Table 13,50.64%
COc1cc2c(cc1OC)C(=C(C(=O)NCCc1ccc(OC)c(C)c1C)c1ccccc1)NCC2 [compound 109],% Inhibition,[1],74.18%
COc1cc2c(cc1OC)C(C(C(=O)N1CCSCC1)c1ccccc1)=NCC2 (centres unmarked) [compound 40],% Inhibition,[1],64.99%
COc1cc2c(cc1OC)C(C(C(=O)N(C)C)c1ccccc1)=NCC2 (centres unmarked) [compound 36],% Inhibition,[1],52.19%

# From patent US5674878A, “Anellated dihydropyridines and the use thereof for the production of pharmaceutical preparations” (Boehringer Ingelheim KG, priority 1992, dated 1997)
